In general, IC50 refers to the concentration at which inhibition is half-maximal. Read a high IC50 as weaker potency.

SMILES strings stand for the structures. Entries after “also recorded” stand apart in the source; their conditions may differ.

These results are taken from patent US6172205A, “Synthetic process toward total synthesis of eleutherobin and its analogues and uses thereof” (The Trustees of Columbia in the City of New York, priority 1998, dated 2001).

The conditions of series [1]: SKBII.294 and 298 structures compared; cited from earlier work.
Series [2] deals with SKVBL (MDR variant of SKOV3). In words: Cytotoxicity by counting cells after 72 h, MDR variant cells. The series is classed as cell-based, human. Particulars: for IC50: Homo sapiens, SK-OV-3, Ovarian Carcinoma SKOV3, Resistant (SKVBL), 72 h, mean of at least three independent experiments; for cross-resistance in SKVBL (in words): MDR1 expressing cells, high P-glycoprotein; for fold resistance relative to the parental cell line: SKVBL vs SKOV3. How it is done:
(§1) Human non-small cell lung carcinoma cells, A549, were maintained in RPMI 1640 containing 10% fetal bovine serum and 1% penicillin-streptomycin (Gibco Laboratories, Grand Island N.Y.) at 37° C. in 7% CO2. The Taxol-resistant cell line A549-T12 was selected for resistance to Taxol and maintained in a final concentration of 12 nM drug (21). Human ovarian carcinoma cells SKOV3 and the MDR variant SKVBL (obtained from Dr. V. Ling) were maintained in α-mem plus ribonucleotides, deoxynucleotides, 15% fetal bovine serum and 1% penicillin-streptomycin (Gibco Laboratories) at 37° C. in 5% CO2. SKVBL cells were maintained in […] vinblastine (Sigma Chemical Co.).
(§2) Taxol-resistant and sensitive cell lines were seeded into 12-well plates at a density of 5×10^4 cells per well and allowed a period of 12 h for attachment prior to treatment. Cells were exposed to 10-fold serial dilutions of each compound (10^-10 to 10^-6 M) for 72 h. Cells were then trypsinized and counted (Coulter counter model ZF0031, Coulter Corp., Miami, Fla.). The IC50 was determined by plotting cell number against log of the drug concentration and this was used to determine the concentration of compound resulting in 50% growth inhibition compared to untreated cells. Each cell line was assayed in a minimum of 3 independent experiments with each compound and the results expressed as the mean IC50.
(§3) The cytotoxic efficacy of eleutherobin and its derivatives (FIG. 6) was evaluated in two drug sensitive human cancer cell lines and their Taxol-resistant counterparts. The results are summarized in Table I in order of decreasing potency. […] The Taxol-resistant cell line SKVBL overexpresses high levels of P-glycoprotein (22). […] The only difference between the two agents is the enantiomeric relationship in the carbohydrate (2'-acetylarabinose) sector (FIG. 6). […] This cell line expressed high levels of MDR1 resulting in Taxol-resistance equal or greater than 1666 -fold compared to the Taxol-sensitive SKOV3 cell line.
(§4) ^a Cytotoxicity determined by counting cells after 72 h drug exposure.

Series [3] relates to tubulin / microtubule protein. As to the kind of experiment: Tubulin polymerization by turbidity at 350 nm in the absence of GTP. Type of series: biochemical, calf. Particulars: 10 μM, relative to eleutherobin. The protocol:
Eleutherobin and its derivatives were synthesized as described (18,19). Taxol was obtained from the Drug Development Branch, National Cancer Institute (Bethesda, Md.). All compounds were dissolved in dimethyl sulfoxide (Sigma Chemical Co., St. Louis, Mo.) at stock concentrations of 5 mM and stored at -20° C. All control samples contained an equal volume of DMSO. GTP was obtained from Sigma Chemical Co. And dissolved in sterile distilled water at a concentration of 10 mM and stored at -20° C. Microtubule protein was purified from calf brains by two cycles of temperature-dependent assembly and disassembly (20) and stored in liquid nitrogen prior to use. The anti-mouse β-tubulin monoclonal antibody T-4026 was obtained from Sigma Chemical Co.
The ability of each compound to polymerize tubulin was evaluated by recording the change in turbidity of microtubule protein at 350 nm for 80 min in a spectrophotometer (UVIKON, Research Instruments Int., SD, Calif.). One mg of purified microtubule protein was diluted in assembly buffer containing 0.1 M MES, 1 mM EGTA, 0.5 mM MgCl2 and 3 M glycerol, pH 6.6. All compounds were evaluated at a concentration of 10 μM at 37° C. […] Microtubule stability was assessed by the addition of 10 mM Ca^++. changes from t=0-10 min were used to calculate initial slopes from the linear portion of each curve. These values were used to calculate the activity of each compound (relative to the activity of Taxol which was assigned a value of 100%).
The polymerization activity of these compounds was also assessed by determining the slope of the linear portion of each curve at A350 nm (t=0-10 min), and expressing this relative to Taxol (which was assigned a value of 100% (FIG. 8). The order of activity of eleutherobin and derivatives using this method, corroborates the results obtained from cytotoxicity studies.

Series [4] concerns Human ovarian carcinoma cells SKOV3. In words: Cytotoxicity by counting cells after 72 h, Taxol-sensitive cells. Type of series: cell-based. Particulars: SK-OV-3, 72 h. How it is done: as §1, §2, §4
Another series relates to P-glycoprotein. As to the kind of experiment: P-glycoprotein substrate behaviour inferred from resistance of SKVBL cells. Type of series: cell-based, human. The protocol:
as §1, §2, §3

The subject of series [5] is Human non-small cell lung carcinoma cells, A549. In words: Cytotoxicity by counting cells after 72 h, Taxol-sensitive cells. The series is classed as cell-based. To be noted: for IC50: Homo sapiens, A549, 72 h; for cytotoxicity (in words): sensitive cell lines (A549, SKOV3). The protocol: Taxol-resistant and sensitive cell lines were seeded into 12-well plates at a density of 5×10^4 cells per well and allowed a period of 12 h for attachment prior to treatment. […] Cells were then trypsinized and counted (Coulter counter model ZF0031, Coulter Corp., Miami, Fla.).

Series [6] can be described thus: Solubility compared to eleutherobin. Type of series: physicochemical.
In series [7] the test system is A549-T12 (Taxol-resistant A549). In words: Cytotoxicity by counting cells after 72 h, Taxol-resistant cells. The series is classed as cell-based, human. Particulars: for fold resistance relative to the parental cell line: A549-T12 vs A549, 4320 min; for IC50: Homo sapiens, Lung Carcinoma A549, Resistant (A549-T12), 72 h, mean of at least three independent experiments. How it is done: as §1, §2, §3, §4

Series [8] relates to cellular microtubules, NIH 3T3 cells. As to the kind of experiment: Microtubule bundle formation by immunofluorescence. To be noted: 2 μM, 5.5 h, 37 °C. The series is classed as cell-based. The protocol:
FIG. 9 immunofluorescence images NIH3T3 cells labeled with β-tubulin antibody following exposure to different drugs. A)DMSO; B)2 μM Taxol; C)2 μM eleutherobin; D)2 μM neo-eleutherobin; E)2 μM SKBII.294; F)2 μM SKBIII.13.
Illustrates the effects of eleutherobin and its derivatives on the morphology of cellular microtubules following exposure of cells to 2 μM of each compound for 5.5 h at 37° C. […] The number of micotic asters correlated with the extent of microtubule bundling in interphase cells.
(§5) NIH 3T3 cells were grown to subconfluency on glass converslips in 35 mm plastic petri dishes. Cells were exposed to 2 μM of Taxol and each of the experimental compounds for 5.5 h at 37° C., rinsed twice in PBS and extracted with 0.5% Triton-X-100 in microtubule stabilizing buffer (PEM) (100 mM PIPES, 2 mM EGTA and 2 mM MgCl2, pH 6.8) for 4 min. Following a wash in PEM, the cells were fixed for 40 min at room temperature in 3% formaldehyde in PEM followed by incubation in 0.1 M glycine in PBS for 10 min and washing (four times) in PEM containing 5 μM EGTA. Following blocking in 20% normal goat serum (NGS) for 30 min at room temperature, cells were incubated for 1 h at 37° C. with a 1:100 dilution of β-tubulin mAb diluted in 10% NGS, washed twice in 1% BSA, once in PBS and three times in 1% BSA. Cells were then incubated in a 1:200 dilution of the secondary fluorophore antibody, IndocarbocyanineCY3 (Jackson Immunoresearch Laboratories Inc., Pa.) in 20% NGS for 20 min at room temperature. Finally cells were washed three times in 1% BSA and the dried slides mounted in 30% glycerol in PBS containing […]-phenylene diamine (1 mg/ml). Fixed slides were examined using a Zeiss Axioskop microscope.

Series [9] can be described thus: Overall biological activity, all parameters tested. The protocol: as §2
The ability of each compound to polymerize tubulin was evaluated by recording the change in turbidity of microtubule protein at 350 nm for 80 min in a spectrophotometer (UVIKON, Research Instruments Int., SD, Calif.). One mg of purified microtubule protein was diluted in assembly buffer containing 0.1 M MES, 1 mM EGTA, 0.5 mM MgCl2 and 3 M glycerol, pH 6.6. All compounds were evaluated at a concentration of 10 μM at 37° C. GTP was used at a final concentration of 1 mM. Microtubule stability was assessed by the addition of 10 mM Ca^++. changes from t=0-10 min were used to calculate initial slopes from the linear portion of each curve. These values were used to calculate the activity of each compound (relative to the activity of Taxol which was assigned a value of 100%).
as §5

`CO[C@]12C=C[C@](C)(O1)[C@@H](OC(=O)/C=C/c1cn(C)cn1)C[C@H]1C(C)=CC[C@H](C(C)C)[C@H]1C=C2COC(C)=O` [SKBII.294]: the “activity reported for compounds with the same structures (in words)” value in series [1] was “equal activity”. In series [2], the 50% inhibitory concentration (IC50) worked out at 1040 nM, the “cross-resistance in SKVBL (in words)” value is reported as “essentially not cross-resistant” and the “fold resistance relative to the parental cell line” value was found to be 3.4 fold. In addition, the “microtubule polymerization activity relative to eleutherobin” value in series [3] was found to be 54%. In series [4], this molecule displayed an IC50 of 307 nM. Besides, the “P-glycoprotein substrate (in words)” value in the series on P-glycoprotein was “considerably less attractive for P-glycoprotein compared to eleutherobin and neo-eleutherobin”. In addition, in series [5], the midpoint of inhibition, the IC50, lay at 152 nM and the “cytotoxicity (in words)” value was “less cytotoxic than either eleutherobin or neo-eleutherobin; also recorded: more cytotoxic than to SKBII.296”. The “solubility (in words)” value in [6] was “reduced solubility compared to eleutherobin”. Besides, in [7], the “fold resistance relative to the parental cell line” value was 1.1 fold and half-maximal inhibition (IC50) required 162 nM. The “microtubule bundle formation (in words)” value in series [8] is on record as “reduced bundle formation in cultured cells; also recorded: induced less bundle formation than neo-eleutherobin”.
For the molecule `CO[C@]12C=C[C@@H]3[C@@H](C(C)C)CC=C(C)[C@@H]3C[C@H](OC(=O)/C=C/c3cn(C)cn3)[C@](C)(C=C1)O2` [SKBII.296], in series [2], inhibition was half-maximal at 1350 nM (IC50), the “cross-resistance in SKVBL (in words)” value was “no cross resistance to SKVBL cells” and the “fold resistance relative to the parental cell line” value came out at 0.8 fold. Also, the “microtubule polymerization activity relative to eleutherobin” value in series [3] is recorded as 54%. Moreover, the IC50 in [4] worked out at 1630 nM. Besides, in the series with P-glycoprotein, the “P-glycoprotein substrate (in words)” value was “considerably less attractive for P-glycoprotein compared to eleutherobin and neo-eleutherobin”. Further, in series [5], the IC50 is 400 nM and the “cytotoxicity (in words)” value is on record as “less cytotoxic than either eleutherobin or neo-eleutherobin”. Besides, in series [6], the “solubility (in words)” value was “reduced solubility compared to eleutherobin”. Moreover, in [7], the “fold resistance relative to the parental cell line” value is on record as 10 fold and the IC50 was found to be 4000 nM. Besides, the “cross-resistance in A549-T12 (in words)” value in series [7] (Taxol-resistant, not expressing P-glycoprotein) was “considerable cross-resistance”. Besides, in [8], the “microtubule bundle formation (in words)” value was “reduced bundle formation in cultured cells; also recorded: induced less bundle formation than neo-eleutherobin”.
In the case of `CO[C@]12C=C[C@](C)(O1)[C@@H](OC(=O)/C=C/c1cn(C)cn1)C[C@H]1C(C)=CC[C@H](C(C)C)[C@H]1C=C2CO` [SKBII.298], in series [9], the “biological activity (in words)” value is listed as “the least active compound in this sub-group”. For the same molecule, the “activity reported for compounds with the same structures (in words)” value in series [1] is “equal activity”. In addition, the “microtubule polymerization activity relative to eleutherobin” value in series [3] came to 36%. In addition, in series [4], the IC50 is greater than 5000 nM. Besides, in series [5], the half-maximal inhibitory concentration (IC50) amounted to 1060 nM and the “cytotoxicity (in words)” value was “considerably less cytotoxic (in the μM range)”. Further, in series [6], the “solubility (in words)” value is on record as “reduced solubility compared to eleutherobin”. Also, the “microtubule bundle formation (in words)” value in series [8] was “induced less bundle formation than neo-eleutherobin”.
